Data on 11 molecules can be found in publication PMC6270258, “Diosgenone Synthesis, Anti-Malarial Activity and QSAR of Analogues of This Natural Product” (Molecules, 2013).

Data set [1] has as its system Plasmodium falciparum FCB-2 (chloroquine-resistant) strain. The data set can be described thus: In vitro antiplasmodial activity, [3H]hypoxanthine incorporation, FCB-2 strain. The settings on record: for RI (resistance index): IC50 FCB-2 (resistant strain)/IC50 NF-54 (sensitive strain); for antiplasmodial activity (in words): P. falciparum FCB-2 and NF-54 strains, compared to diosgenone or parent. In kind it is cell-based.
Method: (§1) A 10 mg/mL stock solution was prepared. […] A 50 μL sample was extracted from this solution and adjusted to 1,000 μL with RPMI-1640 without hypoxanthine until a final 500 μg/mL concentration was reached. The P. falciparum FcB-2 (Colombia) and NF54 (The Netherlands) strains were used for assessing anti-malarial activity.
(§2) Trager and Jensen’s method was used for culturing strains [24, 25]. The methods described by Desjardins et al. [26] were used for evaluating the structural analogs’ in vitro antiplasmodial activity, with some modifications. […] 1.0 µCi/mL of [3H] hypoxanthine (MP Biomedicals, Santa Ana, CA, USA) was added to each well and the plates were then incubated for 48 h at 37 °C in 5% CO2, 5% O2 in a balanced N2 atmosphere. Parasite DNA was harvested and radioactivity was determined by automatic TDCR liquid scintillation counter plate (Chameleon, Hidex Oy, Finland). Experiments were repeated twice with two or three replicates each. A nonlinear regression sigmoidal dose-response (variable slope) model was used to estimate concentration inhibiting 50% growth (IC50) values for each derivative.

Data set [2] relates to Plasmodium falciparum NF-54 strain. The data set can be described thus: In vitro antiplasmodial activity, [3H]hypoxanthine incorporation, NF-54 strain. In kind it is cell-based. The settings on record: 48 h, read-out: IC50 μM ± SD NF-54.
Method: as §1, §2
Data set [3] in a line: Cytotoxicity, MTT colorimetric test. In kind it is cell-based, human. Particulars: human.
Method: (§3) Steroidal derivatives’ cytotoxicity regarding the HepG2-A16 cell line was evaluated by colorimetric test using 3-(4,5-dimethylthiazolyl-2)-2,5-diphenyltetrazolium bromide (MTT), as described by Mosmann [28]. […] An aliquot of each derivative dilution (100 μL, 1,000, 100, 10 and 1 μg/mL) was then added to the wells in triplicate. […] The DMSO diluent agent was evaluated in complete medium and negative controls (untreated cells) were included. Absorbance was measured at 550 nm and statistical Prism software version 5.0 (GraphPad Software Inc., La Jolla, CA, USA) was used for calculating toxic concentration (CC50). Amphotericin B was used as positive control in this assay.
In data set [4] the test system is HepG2-A16 human hepatoma cells. The data set can be described thus: Cytotoxicity, MTT colorimetric test. The settings on record: for SI (selectivity index): CC50 HepG2/IC50 parasite FCB-2. In kind it is cell-based. On the technique in general: Tetrazolium assays rely on reduction of a dye to a coloured formazan, in cell work by metabolically active cells.
Method: as §3
For data set [5], the system named is Plasmodium falciparum FCB-2 (chloroquine-resistant) strain. Also on record: method as in doi:10.1016/S0040-4020(98)00632-2, PMID 11807967. Particulars: reported earlier; cited from earlier work.
Data set [6] concerns Plasmodium berghei (ANKA strain). The data set can be described thus: Peters' 4-day suppressive test in P. berghei-infected mice. The settings on record: for reduction in parasitemia: 4 daily doses. In kind it is in vivo, Plasmodium berghei in Balb/C mice.
Method: Antimalarial activity was expressed as the percentage of parasite multiplication inhibition.
Antimalarial activity was assessed in vivo in the P. berghei rodent malaria model according to Peters’ 4-day suppressive test in P. berghei-infected (ANKA strain), 5–6 week-old Balb/C mice (males and females) weighing 23 ± 5 g; parasitemia kinetics were evaluated following treatment [2]. […] The donor mice were anesthetized with a 5 mg/kg xylazine and 50 mg/kg ketamine cocktail; blood was then collected via intracardiac route and 100 uL of 5 × 10^6 P. berghei ANKA-parasitised parasitized erythrocytes per experimental mouse were inoculated. Mouse infection was checked one day later by thin smear blood test and Giemsa staining.
[7] abbreviates: Plasmodium falciparum, 48 h, P. falciparum FCB-2 chloroquine-resistant strain, 48 h, read-out: IC50 μM ± SD FCB-2.
[8] abbreviates: P. falciparum NF-54 chloroquine-sensitive strain.

Read-outs that look alike come from different tables or passages of the source. A value given as a limit tells only on which side of the number the result lay.

On to `C[C@@H](CO)CCC(=O)[C@@H](C)[C@H]1[C@@H](O)CC2C3CCC4=CC(=O)CC[C@]4(C)C3CC[C@@]21C` (stereo partly shown) [Compound 4], for which the “RI (resistance index)” value in data set [1] is recorded as 0.9. In addition, the IC50 in data set [1] (setting [7]) stood at 223 ± 12.3 µM; in data set [2] (setting [8]), 248 ± 5.3 µM. The molecule also displayed a CC50 at 48 h in data set [3] of 2150 µM. The “SI (selectivity index)” value in data set [4] is on record as 9.6. Further, in data set [5], the “antiplasmodial activity against FcB-2 chloroquine-resistant strains (in words)” value is listed as “have antiplasmodial activity”.
Molecule `CC(=O)OC1CC[C@@]2(C)C(=CC[C@H]3[C@@H]4C[C@@H]5O[C@]6(CC[C@@H](C)CO6)[C@@H](C)[C@@H]5[C@@]4(C)CC[C@@H]32)C1` (stereo partly drawn) [Compound 16, (25R)-3-Acetoxy-spirostan-5-ene] registered a melting point of 182 to 184 °C. For the same molecule, the “antiplasmodial activity (in words)” value in data set [1] is “neither active”. Further, in data set [1] (setting [7]), the IC50 is over 438 µM. Also, the IC50 in data set [2] (setting [8]) is over 438 µM. In data set [3], this molecule gave a CC50 at 48 h of over 2190 µM. The “cytotoxicity (in words)” value in data set [4] is on record as “nor toxic”.
`CCN(CC)CCCC(C)Nc1ccnc2cc(Cl)ccc12` (stereo not shown) [CQ, chloroquine, reference compound]: the IC50 in data set [1] (Plasmodium falciparum, 48 h, read-out: IC50 μM ± SD FCB-2) worked out at 0.157 ± 0.01 µM; in data set [1] (Plasmodium falciparum, read-out: IC50 in the FCB-2 strain) it was 0.158 µM; in data set [2] it was 0.02 ± 0.005 µM. The molecule also displayed a reduction of parasitemia in data set [6] (5 mg/kg oral, second day of treatment) of 100.0%.
With `CC(=O)O[C@H]1CC2C3CCC4=CC(=O)CC[C@]4(C)C3CC[C@]2(C)[C@H]1[C@H](C)C(=O)CC[C@@H](C)CO` (stereo partly shown) [Compound 3], the “RI (resistance index)” value in data set [1] amounted to 0.6. Also, the IC50 in data set [1] (P. falciparum FCB-2 chloroquine-resistant strain, 48 h, read-out: IC50 μM ± SD FCB-2) was found to be 21.35 ± 0.2 µM; in data set [1] (setting [7]) it was 21.4 µM; in data set [2] (setting [8]), 33 ± 0.8 µM. The CC50 at 48 h in data set [3] turned out to be 60 µM. In addition, the “SI (selectivity index)” value in data set [4] is on record as 2.8. Moreover, the “antiplasmodial activity against FcB-2 chloroquine-resistant strains (in words)” value in data set [5] is “have antiplasmodial activity”.
`C[C@@H]1CC[C@@]2(OC1)O[C@H]1C[C@H]3[C@@H]4CC5OC56CC(O)CC[C@]6(C)[C@H]4CC[C@]3(C)[C@H]1[C@@H]2C` (stereo partly drawn) [Compound 17, (25R)-5,6-Epoxy-spirostan-3-ol]: the melting point fell in the range of 97 to 99 °C. In data set [1], the “RI (resistance index)” value turned out to be 2.2 and the “antiplasmodial activity (in words)” value is listed as “neither active”. Also, the IC50 in data set [1] (setting [7]) is over 409 µM. Further, in data set [2] (setting [8]), the IC50 was found to be 184 µM. Besides, the CC50 at 48 h in data set [3] is over 2050 µM. In addition, the “cytotoxicity (in words)” value in data set [4] is recorded as “nor toxic”.
As for `C[C@@H](CI)CCC(=O)[C@@H](C)[C@H]1C(=O)CC2C3CCC4=CC(=O)CC[C@]4(C)C3CC[C@@]21C` (stereo partly drawn) [Compound 15, (25R)-26-Iodine-cholest-4-en-3,16,22-trione], the melting point lay in the range of 148 to 150 °C. Moreover, in data set [1], the “RI (resistance index)” value is given as 1.3. Also, the IC50 in data set [1] (setting [7]) amounted to 2.9 ± 0.3 µM. Also, the IC50 in data set [2] (setting [8]) was 2.2 ± 0.4 µM. In data set [3], this molecule came in with a CC50 at 48 h of 90.2 µM. For the same molecule, the “SI (selectivity index)” value in data set [4] was 31.1.
For the molecule `C[C@@H]1CC[C@@]2(OC1)O[C@H]1C[C@H]3[C@@H]4CC(=O)C5=CC(=O)CC[C@]5(C)[C@H]4CC[C@]3(C)[C@H]1[C@@H]2C` [Compound 18, (25R)-4-Spirosten-3,6-dione], the melting point lay within 200 to 202 °C. Besides, in data set [1], the “RI (resistance index)” value came to 1.2 and the “antiplasmodial activity (in words)” value is on record as “more active than diosgenone”. Further, in data set [1] (setting [7]), the IC50 worked out at 11.3 ± 1.6 µM. Also, the IC50 in data set [2] (setting [8]) turned out to be 9.8 ± 1 µM. For the same molecule, in data set [3], the CC50 at 48 h worked out at 192 µM. Moreover, the “SI (selectivity index)” value in data set [4] amounted to 16.9. This molecule had a reduction in parasitemia in data set [6] (100 mg/kg oral) of 35.0%.
`C[C@@H]1CC[C@@]2(OC1)O[C@H]1C[C@H]3[C@@H]4CCC56OC5C(=O)CC[C@]6(C)[C@H]4CC[C@]3(C)[C@H]1[C@@H]2C` (stereo partly drawn) [Compound 10, (25R)-4,5-Epoxy-spirostan-3-one] had a melting point of 184 to 186 °C. Besides, in data set [1], the “RI (resistance index)” value is recorded as 0.5 and the “antiplasmodial activity (in words)” value is “marginal activity compared to diosgenone”. Also, in data set [1] (setting [7]), the IC50 was 56.7 ± 6.3 µM. Further, the IC50 in data set [2] (setting [8]) came to 106 ± 7.7 µM. The molecule also returned a CC50 at 48 h in data set [3] of 101 µM. In addition, the “SI (selectivity index)” value in data set [4] came to 1.8.
The molecule `CC(=O)OC1C[C@H]2[C@@H]3CCC4=CC(O)CC[C@]4(C)[C@H]3CC[C@]2(C)[C@H]1[C@H](C)C(O)CC[C@@H](C)CO` (stereo partly drawn) [Compound 24, (25R)-16-Acetoxy-4-cholesten-3,22,26-triol] had a melting point of 144 to 146 °C. Also, the “RI (resistance index)” value in data set [1] is on record as 0.9. The IC50 in data set [1] (setting [7]) was determined as 95 ± 7.3 µM. In addition, the IC50 in data set [2] (setting [8]) stood at 101 ± 9.9 µM. Also, the CC50 at 48 h in data set [3] is 306 µM. In addition, the “SI (selectivity index)” value in data set [4] is listed as 3.2.
Turning to `C[C@@H]1CC[C@@]2(OC1)O[C@H]1C[C@H]3[C@@H]4CCC5=CC(=O)CC[C@]5(C)[C@H]4CC[C@]3(C)[C@H]1[C@@H]2C` [Compound 2, (25R)-4-Spirosten-3-one], the IC50 in data set [1] (setting [7]) was found to be 27.9 ± 5.5 µM; in data set [2] (setting [8]), 35.4 ± 2.2 µM. The same molecule registered a half-maximal cytotoxic concentration (CC50) at 48 h in data set [3] of 265 µM. In data set [6] (100 mg/kg oral), the “in vivo effect on parasites (in words)” value is recorded as “no decrease in the amount of parasites”. Further, the “parasitaemia (parasitized erythrocytes)” value in data set [6] (100 mg/kg oral, fifth day post treatment, vehicle controls 36.0%) came to 50.0%. In data set [5], the “antiplasmodial activity against FcB-2 chloroquine-resistant strains (in words)” value is on record as “have antiplasmodial activity”.
`CC1CCC2(OC1)OC1(O)CC3C4CCC56OC5C(=O)CCC6(C)C4CCC3(C)C1C2C` [Compound 14, (25R)-4,5-Epoxy-spirostan-16α-hydroxy-3-one] displayed a melting point of 145 to 147 °C. Further, the “RI (resistance index)” value in data set [1] turned out to be 1.2. Also, the IC50 in data set [1] (setting [7]) turned out to be 10.1 ± 1.3 µM. Also, the IC50 in data set [2] (setting [8]) is 8.5 ± 2.3 µM. Moreover, in data set [3], the CC50 at 48 h was found to be 153 µM. Moreover, the “SI (selectivity index)” value in data set [4] worked out at 15.2. Moreover, the reduction in parasitemia in data set [6] (100 mg/kg oral) was determined as 36.7%.

Broadly, the IC50 is the concentration that gives 50% inhibition. As usually defined, the CC50 is the concentration that lowers cell viability or growth by half. The melting point is the temperature of the solid-liquid transition.
